Data published in ChEMBL document CHEMBL1201862, “PubChem BioAssay data set” (2004).
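Cultured in 96-well plates, cells were exposed to test compound for 48 hours across five concentrations. Here, GI50 denotes the concentration required for 50% inhibition of growth.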 Activity calls are given as the source filed them. No stated cut-off is given here; in the data, active = GI50 up to about 1.1 µM and inactive = higher.

Key:
Test in all cases: NCI anticancer screen, dose series, 48 h
786-0 = system: 786-0
A498 = system: A498
A549 = system: A549
ACHN = system: ACHN
CAKI-1 = system: CAKI-1
CCRF-CEM = system: CCRF-CEM
COLO 205 = system: COLO 205
DLD-1 = system: DLD-1
DMS-114 = system: DMS-114
DMS-273 = system: DMS-273
EKVX = system: EKVX
HCC 2998 = system: HCC 2998
HCT-116 = system: HCT-116
HOP-18 = system: HOP-18
HOP-62 = system: HOP-62
HOP-92 = system: HOP-92
HT-29 = system: HT-29
IGROV-1 = system: IGROV-1
K562 = system: K562
KM-20L2 = system: KM-20L2
KM12 = system: KM12
LOX IMVI = system: LOX IMVI
LXFL 529 = system: LXFL 529
M14 = system: M14
M19-MEL = system: M19-MEL
MOLT-4 = system: MOLT-4
Malme-3M = system: Malme-3M
NCI-H226 = system: NCI-H226
NCI-H23 = system: NCI-H23
NCI-H460 = system: NCI-H460
NCI-H522 = system: NCI-H522
OVCAR-3 = system: OVCAR-3
OVCAR-4 = system: OVCAR-4
OVCAR-5 = system: OVCAR-5
OVCAR-8 = system: OVCAR-8
RPMI-8226 = system: RPMI-8226
RXF 631 = system: RXF 631
SF-268 = system: SF-268
SF-295 = system: SF-295
SF-539 = system: SF-539
SK-MEL-28 = system: SK-MEL-28
SK-MEL-2 = system: SK-MEL-2
SK-MEL-5 = system: SK-MEL-5
SK-OV-3 = system: SK-OV-3
SN12C = system: SN12C
SNB-19 = system: SNB-19
SNB-75 = system: SNB-75
SNB-78 = system: SNB-78
SR = system: SR
SW-620 = system: SW-620
TK-10 = system: TK-10
U-251 = system: U-251
UACC-257 = system: UACC-257
UACC-62 = system: UACC-62
UO-31 = system: UO-31
XF498 = system: XF498
HCT-15 = system: HCT-15
HL-60 = system: HL-60
RXF 393 = system: RXF 393

SMILES: Cn1cnc([N+](=O)[O-])c1Sc1nccn1-c1cccc2ccccc12
- GI50 (786-0): 48.1 µM (inactive)
- GI50 (A498): 32.7 µM (inactive)
- GI50 (A549): 35 µM (inactive)
- GI50 (ACHN): 26.4 µM (inactive)
- GI50 (CAKI-1): 30.9 µM (inactive)
- GI50 (CCRF-CEM): 19.5 µM (inactive)
- GI50 (COLO 205): 16.7 µM (inactive)
- GI50 (DLD-1): 24.2 µM (inactive)
- GI50 (DMS-114): 22 µM (inactive)
- GI50 (DMS-273): 25.2 µM (inactive)
- GI50 (EKVX): 26.9 µM (inactive)
- GI50 (HCC 2998): 45.5 µM (inactive)
- GI50 (HCT-116): 19.7 µM (inactive)
- GI50 (HOP-18): 2.52 µM (inactive)
- GI50 (HOP-62): > 100 µM (inactive)
- GI50 (HOP-92): 15.3 µM (inactive)
- GI50 (HT-29): 23.9 µM (inactive)
- GI50 (IGROV-1): 26.7 µM (inactive)
- GI50 (K562): 19.8 µM (inactive)
- GI50 (KM-20L2): 64.1 µM (inactive)
- GI50 (KM12): 35.7 µM (inactive)
- GI50 (LOX IMVI): 13.6 µM (inactive)
- GI50 (LXFL 529): 18.5 µM (inactive)
- GI50 (M14): 18.8 µM (inactive)
- GI50 (M19-MEL): 25.7 µM (inactive)
- GI50 (MOLT-4): 12.9 µM (inactive)
- GI50 (Malme-3M): 13.7 µM (inactive)
- GI50 (NCI-H226): 18.2 µM (inactive)
- GI50 (NCI-H23): 23 µM (inactive)
- GI50 (NCI-H460): 25.7 µM (inactive)
- GI50 (NCI-H522): 8.69 µM (inactive)
- GI50 (OVCAR-3): 22.9 µM (inactive)
- GI50 (OVCAR-4): 24 µM (inactive)
- GI50 (OVCAR-5): 23.2 µM (inactive)
- GI50 (OVCAR-8): 20.8 µM (inactive)
- GI50 (RPMI-8226): 15.8 µM (inactive)
- GI50 (RXF 631): 22.3 µM (inactive)
- GI50 (SF-268): 24.8 µM (inactive)
- GI50 (SF-295): 48.4 µM (inactive)
- GI50 (SF-539): 25.4 µM (inactive)
- GI50 (SK-MEL-28): 22.5 µM (inactive)
- GI50 (SK-MEL-2): 14.1 µM (inactive)
- GI50 (SK-MEL-5): 29.2 µM (inactive)
- GI50 (SK-OV-3): 31.8 µM (inactive)
- GI50 (SN12C): 31.7 µM (inactive)
- GI50 (SNB-19): 94 µM (inactive)
- GI50 (SNB-75): 29.9 µM (inactive)
- GI50 (SNB-78): 24.7 µM (inactive)
- GI50 (SR): 15.8 µM (inactive)
- GI50 (SW-620): 26.2 µM (inactive)
- GI50 (TK-10): 22 µM (inactive)
- GI50 (U-251): 26.2 µM (inactive)
- GI50 (UACC-257): 27.3 µM (inactive)
- GI50 (UACC-62): 16.4 µM (inactive)
- GI50 (UO-31): 16.7 µM (inactive)
- GI50 (XF498): 16.6 µM (inactive)

SMILES: CC(C)N(C(=O)c1cccc(C(=O)N(C(C)C)C(C)C)c1)C(C)C
- GI50 (786-0): > 100 µM (inactive)
- GI50 (A498): > 100 µM (inactive)
- GI50 (A549): > 100 µM (inactive)
- GI50 (ACHN): > 100 µM (inactive)
- GI50 (CAKI-1): > 100 µM (inactive)
- GI50 (CCRF-CEM): > 100 µM (inactive)
- GI50 (COLO 205): > 100 µM (inactive)
- GI50 (DLD-1): > 100 µM (inactive)
- GI50 (DMS-114): > 100 µM (inactive)
- GI50 (DMS-273): > 100 µM (inactive)
- GI50 (EKVX): > 100 µM (inactive)
- GI50 (HCC 2998): > 100 µM (inactive)
- GI50 (HCT-116): > 100 µM (inactive)
- GI50 (HCT-15): > 100 µM
- GI50 (HL-60): > 100 µM (inactive)
- GI50 (HOP-18): > 100 µM (inactive)
- GI50 (HOP-62): > 100 µM (inactive)
- GI50 (HOP-92): > 100 µM (inactive)
- GI50 (HT-29): > 100 µM (inactive)
- GI50 (IGROV-1): > 100 µM (inactive)
- GI50 (K562): > 100 µM (inactive)
- GI50 (KM-20L2): > 100 µM (inactive)
- GI50 (KM12): > 100 µM (inactive)
- GI50 (LOX IMVI): > 100 µM (inactive)
- GI50 (LXFL 529): > 100 µM (inactive)
- GI50 (M14): > 100 µM (inactive)
- GI50 (M19-MEL): > 100 µM (inactive)
- GI50 (MOLT-4): > 100 µM (inactive)
- GI50 (Malme-3M): > 100 µM (inactive)
- GI50 (NCI-H226): > 100 µM (inactive)
- GI50 (NCI-H23): > 100 µM (inactive)
- GI50 (NCI-H460): > 100 µM (inactive)
- GI50 (NCI-H522): > 100 µM (inactive)
- GI50 (OVCAR-3): > 100 µM (inactive)
- GI50 (OVCAR-4): > 100 µM (inactive)
- GI50 (OVCAR-5): > 100 µM (inactive)
- GI50 (OVCAR-8): > 100 µM (inactive)
- GI50 (RPMI-8226): 24.9 µM (inactive)
- GI50 (RXF 631): > 100 µM (inactive)
- GI50 (SF-268): > 100 µM (inactive)
- GI50 (SF-295): > 100 µM (inactive)
- GI50 (SF-539): > 100 µM (inactive)
- GI50 (SK-MEL-28): > 100 µM (inactive)
- GI50 (SK-MEL-2): > 100 µM (inactive)
- GI50 (SK-MEL-5): > 100 µM (inactive)
- GI50 (SK-OV-3): > 100 µM (inactive)
- GI50 (SN12C): > 100 µM (inactive)
- GI50 (SNB-19): > 100 µM (inactive)
- GI50 (SNB-75): > 100 µM (inactive)
- GI50 (SNB-78): > 100 µM (inactive)
- GI50 (SR): 20.1 µM (inactive)
- GI50 (SW-620): 12.8 µM (inactive)
- GI50 (TK-10): > 100 µM (inactive)
- GI50 (U-251): > 100 µM (inactive)
- GI50 (UACC-257): > 100 µM (inactive)
- GI50 (UACC-62): > 100 µM (inactive)
- GI50 (UO-31): > 100 µM (inactive)
- GI50 (XF498): > 100 µM (inactive)

SMILES: Cc1ccc(C)c(NC(=O)CCc2n[nH]c(=S)o2)c1
- GI50 (786-0): > 100 µM (inactive)
- GI50 (A498): > 100 µM (inactive)
- GI50 (A549): > 100 µM (inactive)
- GI50 (ACHN): > 100 µM (inactive)
- GI50 (CAKI-1): > 100 µM (inactive)
- GI50 (CCRF-CEM): > 100 µM (inactive)
- GI50 (COLO 205): > 100 µM (inactive)
- GI50 (DLD-1): > 100 µM (inactive)
- GI50 (DMS-114): > 100 µM (inactive)
- GI50 (DMS-273): > 100 µM (inactive)
- GI50 (EKVX): > 100 µM (inactive)
- GI50 (HCC 2998): > 100 µM (inactive)
- GI50 (HCT-116): > 100 µM (inactive)
- GI50 (HCT-15): > 100 µM
- GI50 (HL-60): > 100 µM (inactive)
- GI50 (HOP-18): > 100 µM (inactive)
- GI50 (HOP-62): > 100 µM (inactive)
- GI50 (HOP-92): > 100 µM (inactive)
- GI50 (HT-29): > 100 µM (inactive)
- GI50 (IGROV-1): > 100 µM (inactive)
- GI50 (K562): > 100 µM (inactive)
- GI50 (KM-20L2): > 100 µM (inactive)
- GI50 (KM12): > 100 µM (inactive)
- GI50 (LOX IMVI): > 100 µM (inactive)
- GI50 (LXFL 529): > 100 µM (inactive)
- GI50 (M14): > 100 µM (inactive)
- GI50 (M19-MEL): > 100 µM (inactive)
- GI50 (MOLT-4): > 100 µM (inactive)
- GI50 (Malme-3M): > 100 µM (inactive)
- GI50 (NCI-H226): > 100 µM (inactive)
- GI50 (NCI-H23): > 100 µM (inactive)
- GI50 (NCI-H460): > 100 µM (inactive)
- GI50 (NCI-H522): > 100 µM (inactive)
- GI50 (OVCAR-3): > 100 µM (inactive)
- GI50 (OVCAR-4): > 100 µM (inactive)
- GI50 (OVCAR-5): > 100 µM (inactive)
- GI50 (OVCAR-8): > 100 µM (inactive)
- GI50 (RXF 393): > 100 µM (inactive)
- GI50 (RXF 631): > 100 µM (inactive)
- GI50 (SF-268): > 100 µM (inactive)
- GI50 (SF-295): > 100 µM (inactive)
- GI50 (SF-539): > 100 µM (inactive)
- GI50 (SK-MEL-28): > 100 µM (inactive)
- GI50 (SK-MEL-5): > 100 µM (inactive)
- GI50 (SN12C): > 100 µM (inactive)
- GI50 (SNB-19): > 100 µM (inactive)
- GI50 (SNB-75): > 100 µM (inactive)
- GI50 (SNB-78): > 100 µM (inactive)
- GI50 (SR): > 100 µM (inactive)
- GI50 (SW-620): > 100 µM (inactive)
- GI50 (TK-10): > 100 µM (inactive)
- GI50 (U-251): > 100 µM (inactive)
- GI50 (UACC-257): > 100 µM (inactive)
- GI50 (UACC-62): > 100 µM (inactive)
- GI50 (UO-31): > 100 µM (inactive)
- GI50 (XF498): > 100 µM (inactive)
